Source: patent publication US12497402B2, “IRAK4 degraders and uses thereof” (priority 2021, dated 2025)
“And” between values parts separate entries of the source, which are not always exact repeats. Identical values can stand only once.

What was measured:
[1] = tested on: MSU-crystal induced (TLR 2/4-dependent) inflammation; assay: Mouse air pouch model of MSU-crystal induced inflammation; assay type: in vivo; settings: 3 days twice daily, 30 to 100 mg/kg
[2] = biological target: T1, breast cancer resistance protein (BCRP) (Homo sapiens, UniProt Q9UNQ0); assay: BCRP substrate assessment in vitro; assay type: in vitro ADME
T1 sequence (Q9UNQ0 1-655): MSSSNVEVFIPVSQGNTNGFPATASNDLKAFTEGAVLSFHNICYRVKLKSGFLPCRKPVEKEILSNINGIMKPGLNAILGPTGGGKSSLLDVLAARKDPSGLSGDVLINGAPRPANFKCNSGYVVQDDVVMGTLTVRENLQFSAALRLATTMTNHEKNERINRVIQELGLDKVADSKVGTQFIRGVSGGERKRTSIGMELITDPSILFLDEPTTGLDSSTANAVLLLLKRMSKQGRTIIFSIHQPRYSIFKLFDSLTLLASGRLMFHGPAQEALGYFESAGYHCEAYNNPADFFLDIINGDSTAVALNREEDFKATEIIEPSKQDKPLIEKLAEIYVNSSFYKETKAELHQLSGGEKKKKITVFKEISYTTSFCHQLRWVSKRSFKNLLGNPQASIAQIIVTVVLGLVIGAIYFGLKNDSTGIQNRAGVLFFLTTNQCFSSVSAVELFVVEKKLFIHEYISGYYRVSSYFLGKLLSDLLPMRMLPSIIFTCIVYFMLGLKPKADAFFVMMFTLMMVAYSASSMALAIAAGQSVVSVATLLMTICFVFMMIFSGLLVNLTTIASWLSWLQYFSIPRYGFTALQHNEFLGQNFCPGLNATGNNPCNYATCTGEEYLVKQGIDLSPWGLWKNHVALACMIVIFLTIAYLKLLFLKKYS

[3] = Distribution studies in rats; assay type: in vivo, rat
BCRP = biological target: T2, BCRP (Homo sapiens, UniProt Q9UNQ0); assay: In vitro drug-drug interaction study, BCRP efflux; assay type: in vitro ADME
T2 sequence (Q9UNQ0 1-655): T1 sequence (Q9UNQ0 1-655)

cytochrome P450 (CYP) = assay: In vitro and in vivo metabolism studies; assay type: in vitro ADME
[4] = tested on: imiquimod psoriasis model (TLR 7/8-dependent); assay: Imiquimod psoriasis model; assay type: in vivo, mouse
[5] = In vivo pharmacokinetic studies in rats, dogs and monkeys
Solubility = assay type: physicochemical
[6] = tested on: TLR agonist (lipopolysaccharide and R848) and IL-1β-induced proinflammatory cytokine production; assay: In vitro cytokine release assays in PBMCs; assay type: cell-based; settings: R848 and IL-1β stimulation, IL-6, TNF-α, GM-CSF, IL-8
CYP2C19 = CYP2C19 (Homo sapiens, UniProt P33261); assay: In vitro drug-drug interaction study, CYP2C19; assay type: in vitro ADME
P-glycoprotein (P-gp) = P-glycoprotein (P-gp) (Homo sapiens, UniProt P08183); assay: P-gp substrate assessment in vitro; assay type: in vitro ADME
[7] = 4-week oral gavage toxicokinetic study with Compound A in dogs (plasma); settings: dog; for half-life: plasma, dog plasma
Text: The vehicle was HPBCD (Kleptose Oral Grade HPB) prepared in reverse osmosis water.
Assessment of toxicity was based on mortality, clinical observations, body weights, food consumption, ophthalmic observations, electrocardiographic (ECG) measurements, and clinical and anatomic pathology. Blood samples were collected for toxicokinetic evaluation.

[8] = 4-week oral gavage toxicity study with Compound A in dogs with 2-week recovery; assay type: in vivo; settings: for Reversal of vacuolated macrophages at recovery sacrifice: 30 or 200/60 mg/kg/dose
[9] = Excretion study in bile duct-cannulated (BDC) rats; assay type: in vivo, rat
[10] = Red blood cell partitioning; assay type: in vitro ADME
Plasma protein binding = assay type: in vitro ADME; settings: across nonclinical species and humans
CYP3A4 = CYP3A4 (Homo sapiens, UniProt P08684); assay: In vitro drug-drug interaction study, CYP3A4; assay type: in vitro ADME
Permeability = assay type: in vitro ADME

Chain of P-glycoprotein (P-gp) (P08183 whole entry): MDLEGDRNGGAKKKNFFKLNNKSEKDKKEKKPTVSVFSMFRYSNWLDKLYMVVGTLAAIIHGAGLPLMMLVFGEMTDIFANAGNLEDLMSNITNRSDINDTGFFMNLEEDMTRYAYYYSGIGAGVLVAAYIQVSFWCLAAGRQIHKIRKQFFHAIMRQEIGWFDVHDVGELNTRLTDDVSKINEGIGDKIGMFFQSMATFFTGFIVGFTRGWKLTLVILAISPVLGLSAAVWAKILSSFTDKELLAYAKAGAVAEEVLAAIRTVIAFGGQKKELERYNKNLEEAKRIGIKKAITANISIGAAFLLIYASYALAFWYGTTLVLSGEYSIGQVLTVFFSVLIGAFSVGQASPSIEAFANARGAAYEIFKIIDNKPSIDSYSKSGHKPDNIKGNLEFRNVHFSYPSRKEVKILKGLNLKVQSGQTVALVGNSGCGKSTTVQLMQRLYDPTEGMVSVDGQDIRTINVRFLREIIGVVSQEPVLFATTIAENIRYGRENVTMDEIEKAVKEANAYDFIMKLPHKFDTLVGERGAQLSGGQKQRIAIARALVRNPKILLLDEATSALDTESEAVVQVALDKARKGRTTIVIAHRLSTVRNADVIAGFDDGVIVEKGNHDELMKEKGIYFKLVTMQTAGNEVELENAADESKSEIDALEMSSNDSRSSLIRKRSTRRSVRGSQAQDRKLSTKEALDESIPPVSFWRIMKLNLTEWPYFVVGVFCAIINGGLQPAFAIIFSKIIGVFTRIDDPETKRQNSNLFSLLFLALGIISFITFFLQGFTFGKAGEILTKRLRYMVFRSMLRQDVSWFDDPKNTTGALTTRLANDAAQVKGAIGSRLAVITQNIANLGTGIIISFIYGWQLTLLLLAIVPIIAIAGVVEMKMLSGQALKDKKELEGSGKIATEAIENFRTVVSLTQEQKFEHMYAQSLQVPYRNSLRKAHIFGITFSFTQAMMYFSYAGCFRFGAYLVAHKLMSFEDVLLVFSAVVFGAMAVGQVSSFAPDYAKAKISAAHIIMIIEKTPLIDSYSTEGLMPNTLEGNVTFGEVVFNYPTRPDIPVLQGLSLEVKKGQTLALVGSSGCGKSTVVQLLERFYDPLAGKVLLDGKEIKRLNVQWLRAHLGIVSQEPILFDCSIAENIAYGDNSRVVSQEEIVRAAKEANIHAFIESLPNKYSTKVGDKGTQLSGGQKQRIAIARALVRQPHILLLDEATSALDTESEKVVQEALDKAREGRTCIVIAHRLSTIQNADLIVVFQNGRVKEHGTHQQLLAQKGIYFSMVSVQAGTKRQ
Chain of CYP2C19 (P33261 whole entry): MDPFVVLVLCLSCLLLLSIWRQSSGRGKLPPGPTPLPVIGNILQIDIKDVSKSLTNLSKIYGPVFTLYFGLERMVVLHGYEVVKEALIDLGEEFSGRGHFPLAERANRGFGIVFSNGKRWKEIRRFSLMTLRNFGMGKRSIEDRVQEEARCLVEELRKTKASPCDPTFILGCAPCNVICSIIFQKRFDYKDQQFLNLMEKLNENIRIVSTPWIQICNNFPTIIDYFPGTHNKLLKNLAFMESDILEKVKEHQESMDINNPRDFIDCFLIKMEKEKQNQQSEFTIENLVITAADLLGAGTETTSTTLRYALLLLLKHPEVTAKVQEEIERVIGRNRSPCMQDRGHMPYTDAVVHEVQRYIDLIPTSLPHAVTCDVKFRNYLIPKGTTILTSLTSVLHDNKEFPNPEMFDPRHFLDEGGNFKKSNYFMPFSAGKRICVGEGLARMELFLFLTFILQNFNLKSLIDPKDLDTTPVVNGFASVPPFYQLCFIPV
Chain of CYP3A4 (P08684 whole entry): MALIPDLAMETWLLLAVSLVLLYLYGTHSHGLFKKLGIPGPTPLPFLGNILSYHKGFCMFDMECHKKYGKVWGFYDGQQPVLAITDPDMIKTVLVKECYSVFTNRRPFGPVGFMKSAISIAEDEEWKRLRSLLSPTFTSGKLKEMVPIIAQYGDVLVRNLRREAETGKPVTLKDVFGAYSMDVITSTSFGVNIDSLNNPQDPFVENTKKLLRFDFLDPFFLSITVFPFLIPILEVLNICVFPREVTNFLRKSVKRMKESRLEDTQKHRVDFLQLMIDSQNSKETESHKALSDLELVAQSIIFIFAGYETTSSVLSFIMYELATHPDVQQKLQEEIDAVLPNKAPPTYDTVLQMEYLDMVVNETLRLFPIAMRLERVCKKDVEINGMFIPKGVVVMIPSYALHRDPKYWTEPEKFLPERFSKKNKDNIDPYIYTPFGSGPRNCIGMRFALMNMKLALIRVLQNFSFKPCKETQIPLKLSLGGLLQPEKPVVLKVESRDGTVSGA

SMILES: Cn1c(=O)n(C2CCC(=O)NC2=O)c2cccc(C#CCOC3CCN(C[C@H]4CC[C@H](n5cc(NC(=O)c6cnn7ccc(N8C[C@H]9C[C@@H]8CO9)nc67)c(C(F)F)n5)CC4)CC3)c21 (stereo partly drawn) [Compound A, 5-((1R,4R)-2-oxa-5-azabicyclo[2.2.1]heptan-5-yl)-N-(3-(difluoromethyl)-1-((1r,4R)-4-((4-((3-(1-(2,6-dioxopiperidin-3-yl)-3-methyl-2-oxo-2,3-dihydro-1H-benzo[d]imidazol-4-yl)prop-2-yn-1-yl)oxy)piperidin-1-yl)methyl)cyclohexyl)-1H-pyrazol-4-yl)pyrazolo[1,5-a]pyrimidine-3-carboxamide]
- IRAK4 levels in the spleen [1]: significantly reduced IRAK4 levels in the spleen
- Inflammatory exudate (neutrophils, IL-1β) [1]: significantly reduced the inflammatory exudate
- BCRP substrate status [2]: substrate
- CNS penetration [3]: limited penetration into the central nervous system (CNS)
- Tissue distribution [3]: extensively distributed into tissues
- Inhibition of BCRP efflux (BCRP): inhibited BCRP efflux
- Main metabolizing enzyme (cytochrome P450 (CYP)): primarily metabolized by CYP3A4
- Metabolic pathway (cytochrome P450 (CYP); in vitro and in vivo): underwent oxidative metabolism via cytochrome P450 (CYP)
- IRAK4 degradation in spleen and skin ([4]; mouse, in vivo): dose-dependent degradation of IRAK4 in the spleen and skin
- Skin thickness ([4]; mouse, in vivo): reduction in skin thickness
- IL-1β in the skin ([4]; p<0.0001): significant reduction
- IL-6 in the skin ([4]; p<0.05, 300 mg/kg only): significant reduction
- Bioavailability [5]: low to moderate bioavailability
- Clearance [5]: moderate to high clearance
- Terminal half-life [5]: moderate terminal half-life
- Volume of distribution at steady state [5]: high volume of distribution at steady state
- Solubility (Solubility): low solubility
- IC50 (inhibition of proinflammatory cytokine production) [6]: low nM range
- Inhibition of CYP2C19 (CYP2C19): potential time dependent inhibition (TDI)
- P-gp substrate status (P-glycoprotein (P-gp)): substrate
- half-life ([7]; beagle, po, 30 mg/kg, t1/2, elimination half-life, N = 1, Day 1, Group 3, Cmpd A 30 mg/kg/dose oral gavage): 6.54 h
- Potential accumulation after multiple doses ([7]; both, beagle, in vivo): up to 2.14 fold
- Sex differences in mean Cmax and AUC0-24 values ([7]; both, beagle, in vivo): less than 2 fold
- median Tmax ([7]; both, beagle, in vivo, po): 5.00 to 12.0 h
- Tmax ([7]; both, beagle, in vivo, po, 5 mg/kg, Tmax): 4 h
- Tmax ([7]; both, beagle, in vivo, po, 30 mg/kg, Tmax): 5 h and 4 h
- Tmax ([7]; both, beagle, in vivo, po, 60 mg/kg, Tmax): 6 h
- Tmax ([7]; both, beagle, in vivo, po, 60 mg/kg/day, median Tmax): 6 h
- Tmax ([7]; both, beagle, in vivo, po, 100 mg/kg, Tmax): 9 h
- Tmax ([7]; both, beagle, in vivo, po, 200 mg/kg, Tmax): 12 h
- Tmax ([7]; both, beagle, in vivo, po, median Tmax): 5 to 9 h
- half-life ([7]; both, beagle, po, 5 mg/kg, t1/2, mean elimination half-life, Day 1, Group 2, Cmpd A 5 mg/kg/dose oral gavage): 7.6 h
- half-life ([7]; both, beagle, po, 5 mg/kg, t1/2, mean elimination half-life, Day 8, Group 2, Cmpd A 5 mg/kg/dose oral gavage): 8.08 h
- half-life ([7]; both, beagle, po, 5 mg/kg, t1/2, mean elimination half-life, Day 28, Group 2, Cmpd A 5 mg/kg/dose oral gavage): 8.19 h
- half-life ([7]; both, beagle, po, mean half-life (t1/2), Day 1, range across groups): 6.54 to 7.6 h
- Dose proportionality of increases in mean Cmax and AUC0-24 ([7]; in vivo): less than dose proportional
- NOAEL at 4 weeks ([8]; both sexes, beagle, dog, in vivo, dogs, oral gavage once daily, 4 weeks, read-out: no observed adverse effect level (NOAEL)): 60 mg/kg/day
- Body weight, body weight gain, food consumption ([8]; dog, in vivo): No Compound A-related alterations in mean body weight, body weight gain, or food consumption were noted at any dose level
- Clinical and ophthalmic observations ([8]; dog, in vivo): No Compound A-related clinical observations or abnormal ophthalmic observations were noted
- ECG observation ([8]; dog, in vivo): No Compound A-related abnormalities were noted during the dosing phase ECG observation
- Hematology, coagulation, clinical chemistry, urinalysis ([8]; dog, in vivo): No Compound A-related effects in scheduled hematology, coagulation, clinical chemistry, or urinalysis test results were identified
- Organ weights and macroscopic observations ([8]; dog, in vivo): No Compound A-related organ weight differences or macroscopic observations were noted
- Microscopic findings (vacuolated macrophages) ([8]; dog, in vivo, 30 mg/kg): increases of vacuolated macrophages in the small intestine, lymphoid tissues, and lung were considered nonadverse
- Mortality ([8]; female, beagle, dog, in vivo, 100 mg/kg, 4 day (of dosing phase)): One female administered 100 mg/kg/dose was sacrificed in a moribund condition on Day 4 of the dosing phase
- Reversal of vacuolated macrophages at recovery sacrifice ([8]; mesenteric lymph node): lack of reversal after 2 weeks
- Reversal of vacuolated macrophages at recovery sacrifice ([8]; small intestine, GALT/Peyer's patches, mandibular lymph nodes, lung, 2-week recovery): partial reversal
- Reversal of vacuolated macrophages at recovery sacrifice ([8]; spleen, 2-week recovery): complete reversal
- Biliary and intestinal excretion [9]: minor to moderate biliary and intestinal excretion as parent drug
- Renal clearance [9]: negligible renal clearance
- Partitioning into red blood cells [10]: did not significantly partition into red blood cells
- Plasma protein binding (Plasma protein binding): highly bound to plasma proteins
- Inhibition of CYP3A4 (CYP3A4): potential time dependent inhibition (TDI)
- Permeability (Permeability): moderate permeability
